Measured values reported in PMC7827406, “Structure–Activity Relationship (SAR) Study of Spautin-1 to Entail the Discovery of Novel NEK4 Inhibitors” (International Journal of Molecular Sciences, 2021).
Like-named read-outs stand apart in the source and are kept apart here.

What was measured:
Experiment in all cases: biochemical
Set-up in all cases: Eurofins KinaseProfiler full panel at Km ATP, residual kinase activity (%) relative to DMSO
CDK6/cyclinD3(h) = CDK6/cyclinD3(h) (Homo sapiens, UniProt Q00534)
Procedure, shortened: (§1)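 Compounds screened at 10 µM in radiometric kinase activity assays at Km ATP, reported as remaining kinase activity (%). A KINOMEscan competition-binding screen at 10 µM measured DNA-tagged kinase retained on immobilized active-site ligand by qPCR.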

eEF-2K(h) = molecular target: T1, eEF-2K(h) (Homo sapiens, UniProt O00418)
T1 construct: gene EEF2K
T1 sequence (O00418 1-725): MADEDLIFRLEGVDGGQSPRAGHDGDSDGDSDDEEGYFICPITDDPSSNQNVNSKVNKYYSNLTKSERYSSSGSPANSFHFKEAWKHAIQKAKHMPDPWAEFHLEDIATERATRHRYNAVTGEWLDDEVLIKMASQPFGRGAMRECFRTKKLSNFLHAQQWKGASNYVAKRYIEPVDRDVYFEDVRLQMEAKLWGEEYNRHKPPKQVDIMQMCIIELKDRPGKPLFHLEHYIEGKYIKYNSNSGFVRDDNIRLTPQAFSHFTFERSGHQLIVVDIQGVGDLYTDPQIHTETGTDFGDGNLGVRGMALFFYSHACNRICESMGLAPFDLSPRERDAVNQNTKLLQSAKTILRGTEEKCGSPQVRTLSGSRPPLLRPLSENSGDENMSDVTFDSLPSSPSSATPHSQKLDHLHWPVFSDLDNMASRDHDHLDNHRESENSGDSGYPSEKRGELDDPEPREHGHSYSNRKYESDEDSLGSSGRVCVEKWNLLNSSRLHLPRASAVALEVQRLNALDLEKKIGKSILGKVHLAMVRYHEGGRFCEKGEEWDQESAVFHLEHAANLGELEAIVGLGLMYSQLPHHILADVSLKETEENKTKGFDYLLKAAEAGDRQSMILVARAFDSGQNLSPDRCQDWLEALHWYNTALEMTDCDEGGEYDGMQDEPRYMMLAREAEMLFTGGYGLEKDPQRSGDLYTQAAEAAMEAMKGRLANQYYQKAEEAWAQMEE
Procedure, shortened: as §1

BTK(R28H)(h) = BTK(R28H)(h) (Homo sapiens, UniProt Q06187, R28H)
Procedure, shortened: as §1

CDK18/cyclinY(h) = CDK18/cyclinY(h) (Homo sapiens, UniProt Q07002)
Procedure, shortened: as §1

MSSK1(h) = molecular target: T2, MSSK1(h) (Homo sapiens, UniProt Q9UPE1)
T2 construct: gene SRPK3
Procedure, shortened: as §1

CaMKK2(h) = CaMKK2(h) (Homo sapiens, UniProt Q96RR4)
Procedure, shortened: as §1

SRMS(h) = SRMS(h) (Homo sapiens, UniProt Q9H3Y6)
Procedure, shortened: as §1

MELK(h) = MELK(h) (Homo sapiens, UniProt Q14680)
Procedure, shortened: as §1

HIPK2(h) = HIPK2(h) (Homo sapiens, UniProt Q9H2X6)
Procedure, shortened: as §1

TSSK1(h) = molecular target: T3, TSSK1(h) (Homo sapiens, UniProt Q9BXA7)
T3 construct: gene TSSK1B
T3 sequence (Q9BXA7 1-367): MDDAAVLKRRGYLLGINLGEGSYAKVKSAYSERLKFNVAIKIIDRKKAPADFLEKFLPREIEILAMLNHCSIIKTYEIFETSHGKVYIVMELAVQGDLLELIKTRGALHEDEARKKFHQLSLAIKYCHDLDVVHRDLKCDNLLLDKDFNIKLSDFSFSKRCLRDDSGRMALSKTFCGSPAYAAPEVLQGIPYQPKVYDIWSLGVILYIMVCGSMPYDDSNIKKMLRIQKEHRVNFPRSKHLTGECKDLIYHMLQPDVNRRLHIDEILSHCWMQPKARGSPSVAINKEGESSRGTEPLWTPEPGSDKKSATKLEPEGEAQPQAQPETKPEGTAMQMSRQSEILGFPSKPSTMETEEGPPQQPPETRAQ
Procedure, shortened: as §1

[1] = read-out: Residual activity (%) Spautin-1 5aa
[2] = read-out: Residual activity (%) 5as
[3] = read-out: Residual activity (%) 5at
[4] = read-out: Residual activity (%) 5ay

Sequence of HIPK2(h) (Q9H2X6 whole entry): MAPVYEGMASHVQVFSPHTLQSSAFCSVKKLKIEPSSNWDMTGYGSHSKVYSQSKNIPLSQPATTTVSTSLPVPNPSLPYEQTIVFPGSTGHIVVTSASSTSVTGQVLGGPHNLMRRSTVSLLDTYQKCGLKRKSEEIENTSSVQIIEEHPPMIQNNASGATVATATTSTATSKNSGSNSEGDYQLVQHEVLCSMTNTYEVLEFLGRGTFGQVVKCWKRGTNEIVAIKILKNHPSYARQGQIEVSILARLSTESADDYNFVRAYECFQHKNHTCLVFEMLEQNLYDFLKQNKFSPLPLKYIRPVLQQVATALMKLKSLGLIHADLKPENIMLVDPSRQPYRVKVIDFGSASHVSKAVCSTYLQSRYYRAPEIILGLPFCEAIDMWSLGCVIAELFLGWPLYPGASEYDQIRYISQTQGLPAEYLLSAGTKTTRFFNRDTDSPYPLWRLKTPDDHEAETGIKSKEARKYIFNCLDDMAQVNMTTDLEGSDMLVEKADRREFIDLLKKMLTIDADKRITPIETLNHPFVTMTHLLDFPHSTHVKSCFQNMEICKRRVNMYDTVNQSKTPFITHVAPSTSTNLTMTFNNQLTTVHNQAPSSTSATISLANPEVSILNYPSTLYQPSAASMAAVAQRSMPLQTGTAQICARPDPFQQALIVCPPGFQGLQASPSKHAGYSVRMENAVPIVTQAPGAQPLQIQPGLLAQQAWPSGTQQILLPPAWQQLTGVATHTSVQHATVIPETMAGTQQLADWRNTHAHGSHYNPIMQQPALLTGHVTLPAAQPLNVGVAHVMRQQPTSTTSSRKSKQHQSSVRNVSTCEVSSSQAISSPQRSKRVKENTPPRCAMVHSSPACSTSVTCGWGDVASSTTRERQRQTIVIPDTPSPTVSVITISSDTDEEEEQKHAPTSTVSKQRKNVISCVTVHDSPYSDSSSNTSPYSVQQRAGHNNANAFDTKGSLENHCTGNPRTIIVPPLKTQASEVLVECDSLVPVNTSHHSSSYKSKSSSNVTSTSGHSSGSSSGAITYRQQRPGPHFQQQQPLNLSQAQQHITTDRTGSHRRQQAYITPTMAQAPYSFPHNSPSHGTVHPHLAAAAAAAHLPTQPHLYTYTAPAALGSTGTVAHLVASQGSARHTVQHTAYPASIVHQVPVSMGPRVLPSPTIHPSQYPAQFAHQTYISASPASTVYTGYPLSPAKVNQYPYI
Sequence of MELK(h) (Q14680 whole entry): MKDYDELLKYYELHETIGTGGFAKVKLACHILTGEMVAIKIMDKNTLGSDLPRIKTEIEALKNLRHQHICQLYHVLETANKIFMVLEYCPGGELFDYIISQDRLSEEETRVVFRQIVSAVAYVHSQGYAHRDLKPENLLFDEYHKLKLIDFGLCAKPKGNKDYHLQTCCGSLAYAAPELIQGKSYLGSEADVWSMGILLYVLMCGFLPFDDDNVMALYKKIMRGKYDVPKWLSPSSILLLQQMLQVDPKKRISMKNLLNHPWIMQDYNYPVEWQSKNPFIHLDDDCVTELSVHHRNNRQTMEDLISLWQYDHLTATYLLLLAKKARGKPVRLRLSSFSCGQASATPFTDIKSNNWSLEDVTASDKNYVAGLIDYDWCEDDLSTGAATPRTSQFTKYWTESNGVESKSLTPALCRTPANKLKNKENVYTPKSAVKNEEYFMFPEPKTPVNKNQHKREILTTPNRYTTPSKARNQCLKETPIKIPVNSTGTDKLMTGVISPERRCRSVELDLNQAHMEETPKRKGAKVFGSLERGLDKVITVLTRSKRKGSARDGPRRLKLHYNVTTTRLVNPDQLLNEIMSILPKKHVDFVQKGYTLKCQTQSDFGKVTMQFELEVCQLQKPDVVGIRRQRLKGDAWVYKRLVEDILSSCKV
T2 sequence (Q9UPE1 whole entry): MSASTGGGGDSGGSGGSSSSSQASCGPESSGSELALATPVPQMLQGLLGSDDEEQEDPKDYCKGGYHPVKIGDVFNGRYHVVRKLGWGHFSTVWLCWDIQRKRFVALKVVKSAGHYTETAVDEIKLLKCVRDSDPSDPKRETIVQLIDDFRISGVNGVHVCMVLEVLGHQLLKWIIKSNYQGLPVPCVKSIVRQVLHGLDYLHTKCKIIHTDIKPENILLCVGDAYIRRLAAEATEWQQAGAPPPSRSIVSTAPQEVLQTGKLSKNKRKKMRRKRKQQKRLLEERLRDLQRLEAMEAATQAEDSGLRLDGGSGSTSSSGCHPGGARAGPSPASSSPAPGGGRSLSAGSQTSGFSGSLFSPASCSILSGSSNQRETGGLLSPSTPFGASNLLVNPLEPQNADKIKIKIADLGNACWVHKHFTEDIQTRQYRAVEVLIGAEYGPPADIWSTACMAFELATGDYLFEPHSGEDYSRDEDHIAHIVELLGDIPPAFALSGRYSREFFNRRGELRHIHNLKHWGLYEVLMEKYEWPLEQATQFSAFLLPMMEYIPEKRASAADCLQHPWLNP
Sequence of CDK18/cyclinY(h) (Q07002 whole entry): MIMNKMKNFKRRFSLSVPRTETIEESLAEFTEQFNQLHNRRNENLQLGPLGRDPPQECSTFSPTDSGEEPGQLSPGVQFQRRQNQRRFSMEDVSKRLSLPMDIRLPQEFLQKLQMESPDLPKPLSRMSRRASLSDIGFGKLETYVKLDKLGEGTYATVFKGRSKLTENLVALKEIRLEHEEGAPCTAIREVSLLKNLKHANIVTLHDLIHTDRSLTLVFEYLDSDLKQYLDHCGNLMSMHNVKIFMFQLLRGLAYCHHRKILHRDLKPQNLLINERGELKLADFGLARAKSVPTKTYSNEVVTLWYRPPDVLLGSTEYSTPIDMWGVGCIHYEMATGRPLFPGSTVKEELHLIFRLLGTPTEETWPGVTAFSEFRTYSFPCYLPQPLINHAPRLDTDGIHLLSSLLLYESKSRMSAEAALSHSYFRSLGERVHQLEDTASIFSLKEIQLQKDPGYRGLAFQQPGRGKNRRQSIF
Sequence of CDK18/cyclinY(h) (Q8ND76 whole entry partner): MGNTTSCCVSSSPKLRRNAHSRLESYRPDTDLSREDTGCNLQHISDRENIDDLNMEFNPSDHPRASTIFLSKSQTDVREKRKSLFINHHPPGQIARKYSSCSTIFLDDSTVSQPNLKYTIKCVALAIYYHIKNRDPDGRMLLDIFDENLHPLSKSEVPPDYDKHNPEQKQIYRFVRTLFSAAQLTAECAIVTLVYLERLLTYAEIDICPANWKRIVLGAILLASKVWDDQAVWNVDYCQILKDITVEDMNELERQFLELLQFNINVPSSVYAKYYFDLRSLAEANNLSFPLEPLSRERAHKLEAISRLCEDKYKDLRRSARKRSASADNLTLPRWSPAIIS
Sequence of SRMS(h) (Q9H3Y6 whole entry): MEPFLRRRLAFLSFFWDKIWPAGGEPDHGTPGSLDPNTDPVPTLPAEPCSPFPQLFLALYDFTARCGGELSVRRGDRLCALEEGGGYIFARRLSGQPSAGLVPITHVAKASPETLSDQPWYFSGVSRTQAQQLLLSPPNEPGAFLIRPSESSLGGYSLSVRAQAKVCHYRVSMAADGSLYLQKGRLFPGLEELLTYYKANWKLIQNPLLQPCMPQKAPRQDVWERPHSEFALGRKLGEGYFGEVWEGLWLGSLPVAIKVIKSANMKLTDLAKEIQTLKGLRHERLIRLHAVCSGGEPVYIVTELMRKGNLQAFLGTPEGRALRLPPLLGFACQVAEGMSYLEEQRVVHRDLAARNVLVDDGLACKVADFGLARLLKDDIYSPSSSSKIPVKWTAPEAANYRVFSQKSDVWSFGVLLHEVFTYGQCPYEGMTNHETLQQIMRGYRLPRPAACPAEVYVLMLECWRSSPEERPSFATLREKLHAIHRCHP
Sequence of CaMKK2(h) (Q96RR4 whole entry): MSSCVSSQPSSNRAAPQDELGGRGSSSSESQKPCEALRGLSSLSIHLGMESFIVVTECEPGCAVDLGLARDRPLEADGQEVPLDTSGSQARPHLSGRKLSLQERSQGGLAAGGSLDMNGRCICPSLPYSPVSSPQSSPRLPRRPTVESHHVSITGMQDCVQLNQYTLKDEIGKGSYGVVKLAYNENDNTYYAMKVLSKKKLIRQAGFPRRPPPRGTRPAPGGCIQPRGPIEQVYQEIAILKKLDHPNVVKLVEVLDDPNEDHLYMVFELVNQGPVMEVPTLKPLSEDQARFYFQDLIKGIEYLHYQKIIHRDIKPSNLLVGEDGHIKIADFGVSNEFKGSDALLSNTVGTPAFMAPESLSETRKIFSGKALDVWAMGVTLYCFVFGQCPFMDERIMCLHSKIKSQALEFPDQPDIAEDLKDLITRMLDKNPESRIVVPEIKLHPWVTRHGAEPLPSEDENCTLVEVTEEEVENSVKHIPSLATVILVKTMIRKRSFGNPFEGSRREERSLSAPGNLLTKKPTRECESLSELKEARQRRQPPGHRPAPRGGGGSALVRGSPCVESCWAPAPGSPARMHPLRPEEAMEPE
Sequence of CDK6/cyclinD3(h) (Q00534 whole entry): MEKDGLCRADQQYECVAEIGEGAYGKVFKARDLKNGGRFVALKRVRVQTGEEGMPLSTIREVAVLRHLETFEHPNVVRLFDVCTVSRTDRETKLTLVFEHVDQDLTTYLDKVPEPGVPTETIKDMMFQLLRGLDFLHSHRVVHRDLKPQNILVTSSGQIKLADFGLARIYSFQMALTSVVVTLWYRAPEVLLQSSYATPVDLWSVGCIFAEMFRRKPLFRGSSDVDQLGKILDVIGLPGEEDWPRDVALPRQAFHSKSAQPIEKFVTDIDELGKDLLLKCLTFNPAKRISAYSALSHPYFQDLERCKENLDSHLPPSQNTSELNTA
Sequence of CDK6/cyclinD3(h) (P30281 whole entry partner): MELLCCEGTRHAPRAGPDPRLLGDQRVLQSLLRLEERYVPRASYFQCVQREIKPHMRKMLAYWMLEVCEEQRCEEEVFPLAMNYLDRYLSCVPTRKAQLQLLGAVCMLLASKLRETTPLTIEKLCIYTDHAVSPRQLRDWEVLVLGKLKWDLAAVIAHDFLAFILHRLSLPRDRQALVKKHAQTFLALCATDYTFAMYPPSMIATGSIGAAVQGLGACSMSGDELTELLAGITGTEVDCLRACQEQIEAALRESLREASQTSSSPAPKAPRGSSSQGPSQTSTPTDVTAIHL

## Fc1ccc(CNc2ncnc3ccc(F)cc23)cc1 [5aa, 6-Fluoro-N-(4-fluorobenzyl)-4-Quinazolinamine]
CDK6/cyclinD3(h); [1]
  remaining activity at 10 µM: 102%
eEF-2K(h); [1]
  remaining activity at 10 µM: 87%
BTK(R28H)(h); [1]
  remaining activity at 10 µM: 88%
CDK18/cyclinY(h); [1]
  remaining activity at 10 µM: 87%
MSSK1(h); [1]
  remaining activity at 10 µM: 85%
CaMKK2(h); [1]
  remaining activity at 10 µM: 79%
SRMS(h); [1]
  remaining activity at 10 µM: 86%
MELK(h); [1]
  remaining activity at 10 µM: 86%
HIPK2(h); [1]
  remaining activity at 10 µM: 109%
TSSK1(h); [1]
  remaining activity at 10 µM: 82%

## Fc1ccc(CCNc2ncnc3ccc(F)cc23)cc1 [5as, 6-Fluoro-N-[2-(4-Fluorophenyl)Ethyl]-4-Quinazolinamine]
CDK6/cyclinD3(h); [2]
  remaining activity at 10 µM: 96%
eEF-2K(h); [2]
  remaining activity at 10 µM: 85%
BTK(R28H)(h); [2]
  remaining activity at 10 µM: 103%
CDK18/cyclinY(h); [2]
  remaining activity at 10 µM: 102%
MSSK1(h); [2]
  remaining activity at 10 µM: 91%
CaMKK2(h); [2]
  remaining activity at 10 µM: 87%
SRMS(h); [2]
  remaining activity at 10 µM: 84%
MELK(h); [2]
  remaining activity at 10 µM: 90%
HIPK2(h); [2]
  remaining activity at 10 µM: 96%
TSSK1(h); [2]
  remaining activity at 10 µM: 82%

## Fc1ccc2ncnc(NCCc3ccc(Cl)cc3)c2c1 [5at, N-[2-(4-Chlorophenyl)Ethyl]-6-Fluoro-4-Quinazolinamine]
CDK6/cyclinD3(h); [3]
  remaining activity at 10 µM: 98%
eEF-2K(h); [3]
  remaining activity at 10 µM: 85%
BTK(R28H)(h); [3]
  remaining activity at 10 µM: 101%
CDK18/cyclinY(h); [3]
  remaining activity at 10 µM: 116%
MSSK1(h); [3]
  remaining activity at 10 µM: 95%
CaMKK2(h); [3]
  remaining activity at 10 µM: 96%
SRMS(h); [3]
  remaining activity at 10 µM: 71%
MELK(h); [3]
  remaining activity at 10 µM: 73%
HIPK2(h); [3]
  remaining activity at 10 µM: 94%
TSSK1(h); [3]
  remaining activity at 10 µM: 77%

## COc1ccc2ncnc(Nc3cccc(F)c3)c2c1 [5ay, N-(3-Fluorophenyl)-6-Methoxy-4-Quinazolinamine]
CDK6/cyclinD3(h); [4]
  remaining activity at 10 µM: 87%
eEF-2K(h); [4]
  remaining activity at 10 µM: 79%
BTK(R28H)(h); [4]
  remaining activity at 10 µM: 103%
CDK18/cyclinY(h); [4]
  remaining activity at 10 µM: 86%
MSSK1(h); [4]
  remaining activity at 10 µM: 81%
CaMKK2(h); [4]
  remaining activity at 10 µM: 78%
SRMS(h); [4]
  remaining activity at 10 µM: 78%
MELK(h); [4]
  remaining activity at 10 µM: 95%
HIPK2(h); [4]
  remaining activity at 10 µM: 86%
TSSK1(h); [4]
  remaining activity at 10 µM: 81%
